{
  "source": "patent US20220235051A1",
  "about": "“DI-FLUORO AZEPANES AS HBV CAPSID ASSEMBLY MODULATORS” (priority 2019, published 2022)",
  "data": [
    {"system": "HBV", "assay": "HBV replication inhibition assay (BDNA assay) in HepG2.2.15 cells", "type": "cell-based", "conditions": "HepG2.2.15 cells, BDNA assay, encapsidated HBV DNA in supernatant at day 6; read-out: HepG2.2.15 EC50 HBV DNA", "experimental": "(§1) HBV replication inhibition by the disclosed compounds were determined in cells infected or transfected with HBV or cells with stably integrated HBV, such as HepG2.2.15 cells (Sells et al. 1987). In this example, HepG2.2.15 cells were maintained in cell culture medium containing 10% fetal bovine serum (FBS), Geneticin, L-glutamine, penicillin and streptomycin. HepG2.2.15 cells were seeded in 96-well plates at a density of 40,000 cells/well and were treated with serially diluted compounds at a final DMSO concentration of 0.5% either alone or in combination by adding drugs in a checker box format. Cells were incubated with compounds for three days, after which medium was removed and fresh medium containing compounds was added to cells and incubated for another three days. At day 6, supernatant was removed and treated with DNase at 37° C. for 60 minutes, followed by enzyme inactivation at 75° C. for 15 minutes. Encapsidated HBV DNA was released from the virions and covalently linked HBV polymerase by incubating in lysis buffer (Affymetrix QS0010) containing 2.5 μg proteinase K at 50° C. for 40 minutes. HBV DNA was denatured by addition of 0.2 M NaOH and detected using a branched DNA (BDNA) QuantiGene assay kit according to manufacturer recommendation (Affymetrix). HBV DNA levels were also quantified using qPCR, based on amplification of encapsidated HBV DNA extraction with QuickExtraction Solution (Epicentre Biotechnologies) and amplification of HBV DNA using HBV specific PCR probes that can hybridize to HBV DNA and a fluorescently labeled probe for quantitation. In addition, cell viability of HepG2.2.15 cells incubated with test compounds alone or in combination was determined by using CellTitre-Glo reagent according to the manufacturer protocol (Promega). The mean background signal from wells containing only culture medium was subtracted from all other samples, and percent inhibition at each compound concentration was calculated by normalizing to signals from HepG2.2.15 cells treated with 0.5% DMSO using equation E1.\n(§2) % inhibition=(DMSOave−Xi)/DMSOave×100% E1\n(§3) where DMSOave is the mean signal calculated from the wells that were treated with DMSO control (0% inhibition control) and Xi is the signal measured from the individual wells. EC50 values, effective concentrations that achieved 50% inhibitory effect, were determined by non-linear fitting using Graphpad Prism software (San Diego, Calif.) and equation E2.\n(§4) Y=Ymin+(Ymax−Ymin)/(1+10(Log EC50−X)×HillSlope) E2\n(§5) where Y represents percent inhibition values and X represents the logarithm of compound concentrations.\n(§6) Selected disclosed compounds were assayed in the HBV replication assay (BDNA assay), as described above, and a representative group of these active compounds is shown in Table 3.", "units": {"EC50": "nM"}, "values": [
      {"smiles": "C[C@@H]1Cc2nn3c(c2CN1C(=O)Nc1ccc(F)c(C#N)c1)C(F)(F)CCC(CO)C3", "note": "(single isomer, unassigned) [Example 75, (3R,8S*)-N-(3-Cyano-4-fluorophenyl)-11,11-difluoro-8-(hydroxymethyl) -3-methyl-3,4,8,9,10,11-hexahydro-1H-pyrido[4′,3′:3,4]pyrazolo[1,5-a]azepine-2(7H)-carboxamide]", "EC50": 5}
    ]},
    {"system": "HBV", "assay": "HBV replication inhibition assay (BDNA assay) in HepG2.2.15 cells", "type": "cell-based", "conditions": "Hepatitis B virus, HepG2.2.15, 144 h, HepG2.2.15 cells, BDNA assay, encapsidated HBV DNA in supernatant at day 6; read-out: HepG2.2.15 EC50 HBV DNA", "experimental": "as §1, §2, §3, §4, §5, §6", "units": {"EC50": "nM"}, "values": [
      {"smiles": "C#C[C@]1(O)CCC(F)(F)c2c3c(nn2C1)C[C@@H](C)N(C(=O)Nc1ccnc(C(F)F)c1F)C3", "note": "(relative stereo) [Example 100, (3R,8S*)-N-(2-Difluoromethyl)-3-fluoropyridin-4-yl)-8-ethynyl-11,11-difluoro-8-hydroxy-3-methyl-3,4,8,9,10,11-hexahydro-1H-pyrido[4′,3′:3,4]pyrazolo[1,5-a]azepine-2(7H)-carboxamide]", "EC50": 168},
      {"smiles": "C[C@@H]1Cc2nn3c(c2CN1C(=O)Nc1ccc(F)c(C#N)c1)C(F)(F)C[C@@H](CO)CC3", "note": "(relative stereo) [Example 132]", "EC50": 7},
      {"smiles": "O=C(Nc1ccnc(Br)c1F)N1CCc2nn3c(c2C1)C(F)(F)CCC(O)(COCC(F)F)C3", "note": "(single isomer, unassigned) [Example 32, (R*)-N-(2-Bromo-3-fluoropyridin-4-yl)-8-((2,2-difluoroethoxy)methyl)-11,11-difluoro-8-hydroxy-3,4,8,9,10,11-hexahydro-1H-pyrido[4′,3′:3,4]pyrazolo[1,5-a]azepine-2(7H)-carboxamide]", "EC50": 138},
      {"smiles": "O=C(Nc1ccnc(Br)c1F)N1CCc2nn3c(c2C1)C(F)(F)CCC(O)(CF)C3", "note": "(single isomer, unassigned) [Example 38, (S*)-N-(2-Bromo-3-fluoropyridin-4-yl)-11,11-di fluoro-8-(fluoromethyl) -8-hydroxy-3,4,8,9,10,11-hexahydro-1H-pyrido[4′,3′:3,4]pyrazolo[1,5-a]azepine-2(7H)-carboxamide]", "EC50": 84},
      {"smiles": "C=CC1(O)CCC(F)(F)c2c3c(nn2C1)CCN(C(=O)Nc1ccc(F)c(C#N)c1)C3", "note": "(single isomer, unassigned) [Example 56, (R*)-N-(3-Cyano-4-fluorophenyl)-11,11-difluoro-8-hydroxy-8-vinyl-3,4,8,9,10,11-hexahydro-1H-pyrido[4′,3′:3,4]pyrazolo[1,5-a]azepine-2(7H)-carboxamide]", "EC50": 16},
      {"smiles": "C#CC1(O)CCC(F)(F)c2c3c(nn2C1)CCN(C(=O)Nc1ccnc(Br)c1F)C3", "note": "(single isomer, unassigned) [Example 63, (R*)-N-(2-Bromo-3-fluoropyridin-4-yl)-8-ethynyl-11,11-difluoro-8-hydroxy-3,4,8,9,10,11-hexahydro-1H-pyrido[4′,3′:3,4]pyrazolo[1,5-a]azepine-2(7H)-carboxamide]", "EC50": 119},
      {"smiles": "C[C@@H]1Cc2nn3c(c2CN1C(=O)Nc1ccc(F)c(C#N)c1)C(F)(F)CCC(O)(CF)C3", "note": "(single isomer, unassigned) [Example 83, (3R,8R*)-N-(3-Cyano-4-fluorophenyl)-11,11-difluoro-8-(fluoromethyl)-8-hydroxy-3-methyl-3,4,8,9,10,11-hexahydro-1H-pyrido[4′,3′:3,4]pyrazolo[1,5-a]azepine-2(7H)-carboxamide]", "EC50": 10},
      {"smiles": "C[C@@H]1Cc2nn3c(c2CN1C(=O)Nc1ccnc(Br)c1F)C(F)(F)CCC(O)(CF)C3", "note": "(single isomer, unassigned) [Example 84, (3R,8R*)-N-(2-Bromo-3-fluoropyridin-4-yl)-11,11-difluoro-8-(fluoromethyl)-8-hydroxy-3-methyl-3,4,8,9,10,11-hexahydro-1H-pyrido[4′,3′:3,4]pyrazolo[1,5-a]azepine-2(7H)-carboxamide]", "EC50": 69},
      {"smiles": "C[C@@H]1Cc2nn3c(c2CN1C(=O)Nc1ccnc(Br)c1F)C(F)(F)CCC(O)(CC#N)C3", "note": "(single isomer, unassigned) [Example 89, (3R,8S*)-N-(2-Bromo-3-fluoropyridin-4-yl)-8-(cyanomethyl)-11,11-difluoro-8-hydroxy-3-methyl-3,4,8,9,10,11-hexahydro-1H-pyrido[4′,3′:3,4]pyrazolo[1,5-a]azepine-2(7H)-carboxamide]", "EC50": 28}
    ]}
  ]
}
